Laboratory results from ChEMBL document CHEMBL3352790, “Small molecule ghrelin receptor inverse agonists and antagonists” (J Med Chem, 2014).

Tests used:
[1] = species on record: Mus musculus; assay: Reduction in fat content in mouse; type: functional; parameters: scale not given: the % may be the effect or the level left
[2] = Oral bioavailability in rat; type: ADME, organism-based; details: in vivo
[3] = target: T1, Growth hormone secretagogue receptor type 1 (Homo sapiens, UniProt Q92847); assay: Binding affinity to human ghrelin receptor by receptor binding assay
[4] = target: T1, Growth hormone secretagogue receptor type 1; assay: Antagonist activity against human ghrelin receptor by FLIPR assay
[5] = Unbound fraction rat brain; type: ADME, tissue-based
[6] = test system: Mus musculus; assay: Reduction in food intake in C57BL/6J mouse at 30 mg/kg, ip after 2 hrs; type: functional; details: route intraperitoneal

T1 sequence (Q92847 whole entry): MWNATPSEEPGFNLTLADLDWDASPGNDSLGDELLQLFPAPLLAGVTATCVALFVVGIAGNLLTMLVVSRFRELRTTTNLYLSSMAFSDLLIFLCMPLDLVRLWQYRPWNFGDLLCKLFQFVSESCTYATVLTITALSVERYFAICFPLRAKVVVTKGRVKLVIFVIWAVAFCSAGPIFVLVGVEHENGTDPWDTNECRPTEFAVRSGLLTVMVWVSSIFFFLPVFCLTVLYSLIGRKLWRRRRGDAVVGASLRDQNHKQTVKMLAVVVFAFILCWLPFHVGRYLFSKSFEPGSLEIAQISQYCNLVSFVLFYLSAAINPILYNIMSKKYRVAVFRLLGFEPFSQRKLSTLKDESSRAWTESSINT

CCN(CC)CCCS(=O)(=O)N[C@H](CCc1ccccc1)c1nc(-c2ccc(OC)cc2)n[nH]1
Activity [1]: 50% | bioavailability [2]: 63% | Ki [3]: 15 nM

CN1CCN([C@@H](C(=O)NNc2cc(C(F)(F)F)cc(C(F)(F)F)c2)c2ccccc2Cl)CC1
IC50 [4]: 6.31 nM | Fu [5]: 0.2%

O=C(NNc1cc(C(F)(F)F)cc(C(F)(F)F)c1)[C@@H](c1cccnc1)N1CCN2CCC[C@@H]2C1
IC50 [4]: 3.98 nM

CC(NC(=O)N(Cc1ccccc1Cl)C1CCN(C)CC1)c1cccc(Cl)c1Cl (configuration not stated)
inhibition in vivo at 30 mg/kg [6]: 70%
